Assay results as given in patent US20250186379A1, “METHODS AND AGENTS FOR DECREASING INSULIN RESISTANCE” (Whitehead Institute for Biomedical Research, priority 2021, published 2025).
“Also recorded” adds a separate entry of the source.

Tested on: insulin signaling proteins (IR, IRS1, AKT, ERK, GSK3)
Assay: Immunoblot of phosphorylated over total insulin signaling proteins in HepG2 cells
Assay type: cell-based, human
Procedure: Cells were washed with ice-cold PBS and lysed in Cell Lytic M (Sigma-Aldrich C2978) supplemented with protease and phosphatase inhibitors (Sigma Aldrich, 11873580001 and 4906837001) directly on the wells. Lysates were placed into a 1.5 ml tube and mixed at 4° C. for 20 min and then centrifuged at 13,000 rpm for 15 min. Protein concentration was determined using a BCA Protein Assay Kit (Life Technologies, 23250) according to the manufacturer's instructions. Equal amounts of protein (5-50 μg per sample) were separated on 10% or 12% Bis-Tris gels in 5% XT MOPS running buffer (Bio-Rad Laboratories, 1610788) at 100V until dye front reached the end of the gel. Protein was then transferred to a 0.45 μM PVDF membrane (Millipore, IPVH00010) in ice cold transfer buffer (25 mM Tris, 192 mM glycine, 20% methanol) at 300 mA for 1 hour or 250 mA for 2 hours at 4° C. After the transfer, membranes were blocked in 5% non-fat milk (LabScientific, M0842) dissolved in TBST (2% Tris HCl pH 8.0, 1.3% 5M NaCl, 0.05% Tween 20) or 5% BSA (VWR, 102643-516) in 1×TBST for 15 min to 1 hour at room temperature shaking. Membranes were then incubated overnight at 4° C. in 1:1000 primary antibody in 5% non-fat milk in TBST or 5% BSA in TBST. BSA was used for immunoblotting phosphorylated proteins, otherwise milk was used. Membranes were then washed three times for 5 min in TBST shaking at room temperature prior to incubation in 1:10,000 secondary antibody in 5% non-fat milk in TBST for 1 hour at room temperature. This was followed by three 10-minute washes in TBST. Membranes were developed with ECL substrate (Thermo Scientific, 34080) and imaged using a CCD camera. Immunoblot quantification was performed using the “analyze gel” tool on Fiji/ImageJ v2.1.0/153c.
The following primary antibodies were used for WB: anti-phosphorylated insulin receptor (Abcam, ab60946 and Cell Signaling 3026), anti-insulin receptor beta (Cell Signaling, 23413; Bethyl, A303-712A or Cell Signaling, 3025), anti-insulin receptor alpha (Cell Signaling, 74118), anti-phosphorylated AKT (Cell Signaling, 4056), anti-AKT (Cell Signaling, 9272), anti-phosphorylated ERK (Cell Signaling, 4377), anti-ERK (Cell Signaling, 9102), anti-beta Actin (Sigma Aldrich, A5441). The following secondary antibodies were used: donkey anti-rabbit IgG (Cytiva Life Sciences, NA934-1ML) and sheep anti-mouse IgG (Sigma Aldrich, NXA931V).
Cells were washed with ice-cold PBS (Life Technologies, AM9625) and lysed in Cell Lytic M (Sigma Aldrich C2978) supplemented with protease and phosphatase inhibitors (Sigma Aldrich, 11873580001 and 4906837001) directly on the wells. Lysates were placed into a 1.5 ml tube and mixed at 4° C. for 20 minutes, sonicated and then centrifuged at 12,000×g for 15 minutes. Super natant was collected and protein concentration was determined using a BCA Protein Assay Kit (Life Technologies, 23250) according to the manufacturer's instructions. Equal amounts of protein (5-50 μg per sample) were separated on 10% or 12% Bis-Tris gels in 5% XT MOPS running buffer (Bio-Rad Laboratories, 1610788) at 100V until dye front reached the end of the gel. Protein was then transferred to a 0.45 μM PVDF membrane (Millipore, IPVH00010) in ice cold transfer buffer (25 mM Tris, 192 mM glycine, 20% methanol) at 300 mA for 1 hour or 250 mA for 2 hours at 4° C. After the transfer, membranes were blocked in either 5% non-fat milk (LabScientific, M0842) dissolved in TBST (2% Tris HCl pH 8.0, 1.3% 5M NaCl, 0.05% Tween 20) or 5% BSA (VWR, 102643-516) in 1×TBST for 15 minutes to 1 hour at room temperature with shaking. Membranes were then incubated overnight at 4° C. in 1:1000 primary antibody (specific antibodies listed below) in 5% non-fat milk in TBST or 5% BSA in TBST. BSA was used for immunoblotting phosphorylated proteins, otherwise milk was used. […]

[1] = insulin-sensitive HepG2 cells, acute insulin stimulation

insulin: insulin (Sigma Aldrich, I9278-5ML) used for acute stimulation and chronic physiological or pathological exposure
phosphorylation of GSK3 after insulin stimulation (cells exposed to pathologic levels (3 nM) of insulin for two days): decreased phosphorylation of GSK3 | phosphorylation of insulin signaling proteins after insulin stimulation (cells exposed to pathologic levels (3 nM) of insulin for two days vs physiologic (0.1 nM)): reduced phosphorylation of IR, IRS1, AKT and ERK | GSK3 phosphorylation (insulin-sensitive HepG2 cells, 3 nM insulin 5 minutes): increased GSK3 phosphorylation | AKT and ERK pathway activation [1]: stimulate; also recorded: AKT and ERK pathway activation | IR phosphorylation [1]: stimulate; also recorded: induced IR phosphorylation

CN(C)C(=N)N=C(N)N [metformin, reference compound]
IRS1 phosphorylation (pIRS1 over total IRS1, western blot) (insulin-resistant cells + metformin (FIG. 38)): partial rescue of IRS1 phosphorylation; also recorded: partially rescues phosphorylation of IRS1
